# Source: paper PMC11959975 (Acta Pharmaceutica Sinica. B, 2025)
# What was measured:
# [1] = tested on: mice; test: Bleeding time of tail clipping in mice; assay type: in vivo; details: 5 mg/kg
# [2] = tested on: arteriovenous shunt thrombosis model in rats; test: Arteriovenous shunt thrombosis model in rats; assay type: in vivo; details: 10 mg/kg, i.v.
# [3] = tested on: MCAO model of SD rats; test: Rat model of acute ischemic stroke; assay type: in vivo; details: acute IS rats, 10 mg/kg
# [4] = tested on: MCAO model of SD rats; test: Rat model of chronic ischemic stroke; assay type: in vivo; details: chronic IS rats
# [5] = tested on: permanent cerebral ischemic stroke in rats; test: Rat model of permanent ischemic stroke; assay type: in vivo, SD rats; details: permanent IS rats
SMILES,Bleeding time [1] [min],inhibition (%) of dry thrombus [2] [%],inhibition (%) of wet thrombus [2] [%],reduction of cerebral infarction volume vs model group [3] [%],reduction of cerebral infarction volume ([4]; 5.0 mg/kg) [%],misstep frequency (grid test) ([4]; day 14 after modeling),reduction of cerebral infarction volume vs model group ([5]; 10 mg/kg) [%],NSS value ([5]; day 1 after surgery)
"CC(=O)Oc1ccccc1C(=O)O [ASP, O-acetoxybenzoic acid]",22.52 ± 1.31,39.67,40.74,,,,,
"CCCCC(O)c1ccccc1C(=O)[O-].[K+] (stereo not drawn) [PHPB, potassium 2-(1-hydroxypentyl)-benzoate]",,11.32,15.39,,,,,
CCCC[C@@H]1OC(=O)c2ccccc21 [S-NBP],,25.95,33.24,,,,,
"CCCCC1OC(=O)c2ccccc21 (stereo not drawn) [NBP, R,S-3-n-butylphthalide]",,,,35,32,significantly higher than that in the sham group,7,lower than that of the model group but without significant difference
